Laboratory results as given in PubChem BioAssay (NCI).
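Following 48 hours of exposure in 96-well plates, responses at five concentrations were used to interpolate endpoints linearly. At the TGI there is no net growth.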 Where a SMILES comes first, the peptide text is derived from it. The star is where a group is joined. Boc = CC(C)(C)OC(=O)*

What was measured:
Test in all cases: DTP human tumour cell line panel, 48 h
UACC-62 melanoma = tested on: UACC-62 melanoma
SR leukemia = tested on: SR leukemia
U251 CNS = tested on: U251 CNS
SW-620 colon = tested on: SW-620 colon
OVCAR-5 ovarian = tested on: OVCAR-5 ovarian
EKVX NSCLC = tested on: EKVX NSCLC
MDA-MB-435 = tested on: MDA-MB-435
TK-10 renal = tested on: TK-10 renal
PC-3 prostate = tested on: PC-3 prostate
NCI-H460 lung = tested on: NCI-H460 lung

Measured: TGI

COI1NC(=O)c2ccccc21
not listed: NCI-H460 lung
> 100 µM: all other assays above

CCCC(=O)OC1C(CO)OC(n2cc(F)c(=O)[nH]c2=O)C1F (configuration not stated)
not listed: U251 CNS | NCI-H460 lung
> 100 µM: all other assays above

COCN1C(=O)[C@@H]2CCCN2C(=O)c2cc(N)ccc21
not listed: SR leukemia | NCI-H460 lung
> 100 µM: all other assays above

Cc1cn(CC2=NCC(C)N2)c(=O)[nH]c1=O (configuration not stated)
not listed: MDA-MB-435
> 100 µM: all other assays above

CCC(=O)Nc1ccc(N2C(=O)C(Cl)C2c2ccc(SC)cc2)cc1 (configuration not stated)
not listed: U251 CNS | TK-10 renal
> 100 µM: all other assays above

Cc1ccc(S(=O)(=O)N2CCCSCC2)cc1
not listed: UACC-62 melanoma | OVCAR-5 ovarian | EKVX NSCLC
> 100 µM: all other assays above

COC(=O)C(Cc1c[nH]c2ccccc12)NC(=O)C(Cc1c[nH]c2ccccc12)NC(=O)C(Cc1c[nH]c2ccccc12)NC(=O)C(Cc1c[nH]c2ccccc12)NC(=O)C(Cc1c[nH]c2ccccc12)NC(=O)C(Cc1c[nH]c2ccccc12)NC(=O)C(Cc1c[nH]c2ccccc12)NC(=O)C(Cc1c[nH]c2ccccc12)NC(=O)OC(C)(C)C (configuration not stated) (Boc-WWWWWWWW-OMe; configuration not given here)
not listed: EKVX NSCLC
> 100 µM: all other assays above

O=C1CC(c2ccccc2)n2cccc21 (configuration not stated)
not listed: NCI-H460 lung
> 100 µM: all other assays above
